Values joined by “and” are separate entries in the source; they are usually repeats but may differ in a detail not shown here. Identical values can stand only once. Inconclusive results and toxic doses are left out. How the source made its calls: active means survival T/C of 150% or more; inactive means T/C below 125% in these data.
System: P388 leukemia ip, CD2F1 mice, survival T/C
Test: NCI In Vivo Anticancer Drug Screen. Data for tumor model P388 Leukemia (intraperitoneal) in CD2F1 (CDF1) mice
Conditions: endpoint: median survival time, higher = longer survival
In short: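 Mice carrying the transplanted tumor received test compound or vehicle. Survival was recorded in each group, and the value is the treated-group measurement divided by that of the vehicle-treated control group.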

[1] = dose: 12.5 mg/kg/injection, schedule: Q01DX009 (ip), vehicle: Klucel (hydroxypropylcellulose) (HPC)
[2] = dose: 25.0 mg/kg/injection, schedule: Q01DX009 (ip), vehicle: Klucel (hydroxypropylcellulose) (HPC)
[3] = dose: 50.0 mg/kg/injection, schedule: Q01DX009 (ip), vehicle: saline with Tween-80
[4] = dose: 100.0 mg/kg/injection, schedule: Q01DX009 (ip), vehicle: saline with Tween-80
[5] = dose: 200.0 mg/kg/injection, schedule: Q01DX009 (ip), vehicle: saline with Tween-80
[6] = dose: 50.0 mg/kg/injection, schedule: Q01DX005 (ip), vehicle: saline
[7] = dose: 50.0 mg/kg/injection, schedule: Q01DX009 (ip), vehicle: saline
[8] = dose: 100.0 mg/kg/injection, schedule: Q01DX009 (ip), vehicle: saline
[9] = dose: 200.0 mg/kg/injection, schedule: Q01DX009 (ip), vehicle: saline
[10] = dose: 50.0 mg/kg/injection, schedule: Q04DX003 (ip), vehicle: saline
[11] = dose: 50.0 mg/kg/injection, schedule: Q01DX005 (ip), vehicle: saline with Tween-80
[12] = dose: 60.0 mg/kg/injection, schedule: Q01DX005 (ip), vehicle: Klucel (hydroxypropylcellulose) (HPC)
[13] = dose: 120.0 mg/kg/injection, schedule: Q01DX005 (ip), vehicle: Klucel (hydroxypropylcellulose) (HPC)

Measured: T/C

CCN1CC2(COC)C(O)CC(OC)C34C5CC6(O)C(OC)C=C(C5C6OC(=O)c5ccc(OC)c(OC)c5)C(C(OC)C23)C14 (centres undefined)
inactive: dose: 0.05 mg/kg/injection, schedule: Q01DX009 (ip), vehicle: Klucel (hydroxypropylcellulose) (HPC) 90 % of control | dose: 0.05 mg/kg/injection, schedule: Q01DX009 (ip), vehicle: saline with Tween-80 102 % of control | dose: 0.1 mg/kg/injection, schedule: Q01DX009 (ip), vehicle: Klucel (hydroxypropylcellulose) (HPC) 91 % of control | dose: 0.1 mg/kg/injection, schedule: Q01DX009 (ip), vehicle: saline with Tween-80 96 % of control | dose: 0.2 mg/kg/injection, schedule: Q01DX009 (ip), vehicle: Klucel (hydroxypropylcellulose) (HPC) 100 % of control | dose: 0.2 mg/kg/injection, schedule: Q01DX009 (ip), vehicle: saline with Tween-80 91 % of control | dose: 0.4 mg/kg/injection, schedule: Q01DX009 (ip), vehicle: Klucel (hydroxypropylcellulose) (HPC) 116 % of control | dose: 0.4 mg/kg/injection, schedule: Q01DX009 (ip), vehicle: saline with Tween-80 91 % of control

C=C1C(=O)OC2CC3(C)CCCC(C)C3=CC12 (centres undefined)
inactive: [1] 100 % of control | [2] 96 % of control | dose: 50.0 mg/kg/injection, schedule: Q01DX009 (ip), vehicle: Klucel (hydroxypropylcellulose) (HPC) 101 % of control | dose: 100.0 mg/kg/injection, schedule: Q01DX009 (ip), vehicle: Klucel (hydroxypropylcellulose) (HPC) 100 % of control

C=CCNC(=S)Nc1sc(C)c(C)c1C(=O)OCC
inactive: [3] 100 % of control | [4] 100 % of control | [5] 97 % of control

O=C1CN(C2CCCCC2)CC(=O)N2CCCCN12
inactive: [6] 108 % of control | dose: 100.0 mg/kg/injection, schedule: Q01DX005 (ip), vehicle: saline 105 % of control | dose: 200.0 mg/kg/injection, schedule: Q01DX005 (ip), vehicle: saline 103 % of control

C[Si](C)(C)C1c2ccccc2-c2[nH]c3ccccc3c21 (centres undefined)
inactive: dose: 6.25 mg/kg/injection, schedule: Q01DX009 (ip), vehicle: Klucel (hydroxypropylcellulose) (HPC) 101 % of control | [1] 87 % of control | [2] 102 % of control

C/C=C(\C#N)SCC
inactive: [3] 103 % of control | [4] 114 % of control | [5] 109 % of control

OC1CCC2CC2C1 (centres undefined)
inactive: [7] 108 % of control | [8] 102 % of control | [9] 108 % of control

COc1ccccc1CN1CC(C)N(N=Cc2c3c(O)c4c(O)c(C)c5c(c4c2O)C(=O)C(C)(O/C=C/C(OC)C(C)C(OC(C)=O)C(C)C(O)C(C)C(O)C(C)/C=C/C=C(\C)C(=O)N3)O5)C(C)C1 (centres undefined)
inactive: [3] 102 % of control | [4] 107 % of control | [5] 117 % of control

C=C1C(=O)OC2C1CC(OC(C)=O)/C(C)=C/CCC1(C)OC21 (centres undefined)
inactive: dose: 4.0 mg/kg/injection, schedule: Q01DX009 (ip), vehicle: Klucel (hydroxypropylcellulose) (HPC) 93 % of control | dose: 8.0 mg/kg/injection, schedule: Q01DX009 (ip), vehicle: Klucel (hydroxypropylcellulose) (HPC) 97 % of control | dose: 16.0 mg/kg/injection, schedule: Q01DX009 (ip), vehicle: Klucel (hydroxypropylcellulose) (HPC) 96 % of control | dose: 32.0 mg/kg/injection, schedule: Q01DX009 (ip), vehicle: Klucel (hydroxypropylcellulose) (HPC) 93 % of control

O=C(CN1CCCCC1)Nc1cccc(Cl)c1
inactive: [3] 100 % of control | [7] 103 % of control | [4] 100 % of control | [8] 107 % of control | [5] 123 % of control | [9] 120 % of control

Cc1cccc(=N)n1CCC(=O)O
inactive: [8] 90 % of control | [9] 100 % of control

O=C(NN=C1CCCCC1)C(=O)Nc1cccc(C(F)(F)F)c1
inactive: dose: 50.0 mg/kg/injection, schedule: Q01DX005 (ip), vehicle: Klucel (hydroxypropylcellulose) (HPC) 97 % of control | dose: 100.0 mg/kg/injection, schedule: Q01DX005 (ip), vehicle: Klucel (hydroxypropylcellulose) (HPC) 92 % of control | dose: 200.0 mg/kg/injection, schedule: Q01DX005 (ip), vehicle: Klucel (hydroxypropylcellulose) (HPC) 88 % of control

CC(C)OP(=S)(OC(C)C)SC(C)C
inactive: [7] 104 % of control | [8] 119 % of control | [9] 116 % of control

C(=C\c1nc2ccccc2s1)/c1ccc2c(c1)OCO2
inactive: [3] 90 % of control | [4] 90 % of control | [5] 100 % of control

CC(O)CC(O)CC1CCCO1 (centres undefined)
inactive: dose: 12.5 mg/kg/injection, schedule: Q01DX005 (ip), vehicle: saline 98 % of control | dose: 25.0 mg/kg/injection, schedule: Q01DX005 (ip), vehicle: saline 97 % of control | [6] 98 % of control and 88 % of control

CC1=CC[C@@H](Br)C(C)(C)[C@]12CC[C@]1(C)O[C@@H]1C2
inactive: dose: 12.5 mg/kg/injection, schedule: Q01DX005 (ip), vehicle: saline + alcohol 110 % of control | dose: 25.0 mg/kg/injection, schedule: Q01DX005 (ip), vehicle: saline + alcohol 110 % of control | dose: 50.0 mg/kg/injection, schedule: Q01DX005 (ip), vehicle: saline + alcohol 105 % of control | dose: 100.0 mg/kg/injection, schedule: Q01DX005 (ip), vehicle: saline + alcohol 105 % of control

C=C1C(=O)OC2/C=C(\C)CC/C=C(/C=O)C(OC(=O)C(C)C)C(O)C12 (centres undefined)
inactive: dose: 8.0 mg/kg/injection, schedule: Q01DX009 (ip), vehicle: saline + alcohol 97 % of control

N=C(N)c1ccc(OCCCOc2ccc(C(=N)N)cc2Br)c(Br)c1
inactive: dose: 6.25 mg/kg/injection, schedule: Q04DX003 (ip), vehicle: saline 100 % of control | dose: 12.5 mg/kg/injection, schedule: Q04DX003 (ip), vehicle: saline 109 % of control | dose: 25.0 mg/kg/injection, schedule: Q04DX003 (ip), vehicle: saline 113 % of control | dose: 33.0 mg/kg/injection, schedule: Q04DX003 (ip), vehicle: saline 113 % of control | [7] 90 % of control | [10] 113 % of control
active: dose: 25.0 mg/kg/injection, schedule: Q01DX009 (ip), vehicle: saline 160 % of control

O=C(Nc1ccc(Cl)c(Cl)c1Cl)/C(Cl)=C1/Sc2ccccc2NC1=O
inactive: [11] 108 % of control | dose: 100.0 mg/kg/injection, schedule: Q01DX005 (ip), vehicle: saline with Tween-80 101 % of control | dose: 200.0 mg/kg/injection, schedule: Q01DX005 (ip), vehicle: saline with Tween-80 101 % of control

CC(C)=CCc1c(O)ccc(C(=O)[C@H]2C(c3ccc(O)cc3O)CC(C)=C[C@@H]2c2c(O)cc(O)c3c(=O)c(CC=C(C)C)c(-c4ccc(O)cc4O)oc23)c1O (some centres undefined)
inactive: dose: 7.5 mg/kg/injection, schedule: Q01DX005 (ip), vehicle: Klucel (hydroxypropylcellulose) (HPC) 92 % of control | dose: 15.0 mg/kg/injection, schedule: Q01DX005 (ip), vehicle: Klucel (hydroxypropylcellulose) (HPC) 97 % of control | dose: 30.0 mg/kg/injection, schedule: Q01DX005 (ip), vehicle: Klucel (hydroxypropylcellulose) (HPC) 93 % of control | [12] 108 % of control | [13] 92 % of control

CC1CCC(C)N(C)C1 (centres undefined)
inactive: dose: 25.0 mg/kg/injection, schedule: Q01DX005 (ip), vehicle: saline with Tween-80 98 % of control | [11] 102 % of control

Cc1c(Cl)c2ccc(N(C)C)cc2[nH]c1=O
inactive: dose: 50.0 mg/kg/injection, schedule: Q01DX009 (ip), vehicle: acid diluted with saline 95 % of control | dose: 100.0 mg/kg/injection, schedule: Q01DX009 (ip), vehicle: acid diluted with saline 93 % of control | dose: 200.0 mg/kg/injection, schedule: Q01DX009 (ip), vehicle: acid diluted with saline 89 % of control

CC1(C)N=C(N)N=C(N)N1c1ccc(OCC(=O)N2CCOCC2)cc1
inactive: [10] 100 % of control | dose: 66.0 mg/kg/injection, schedule: Q01DX009 (ip), vehicle: saline sonified 110 % of control | dose: 100.0 mg/kg/injection, schedule: Q01DX009 (ip), vehicle: saline sonified 120 % of control | dose: 100.0 mg/kg/injection, schedule: Q04DX003 (ip), vehicle: saline 95 % of control

O=[N+]([O-])c1ccc(Cl)c(C(Nc2nncs2)Nc2nncs2)c1
inactive: [12] 91 % of control | [13] 104 % of control | dose: 240.0 mg/kg/injection, schedule: Q01DX005 (ip), vehicle: Klucel (hydroxypropylcellulose) (HPC) 119 % of control

Cn1c([N+](=O)[O-])cnc1N1CCN(c2nncs2)C1=O
inactive: dose: 60.0 mg/kg/injection, schedule: Q01DX005 (ip), vehicle: saline 100 % of control | dose: 120.0 mg/kg/injection, schedule: Q01DX005 (ip), vehicle: saline 101 % of control | dose: 240.0 mg/kg/injection, schedule: Q01DX005 (ip), vehicle: saline 100 % of control
